Test results taken from US20220256854A1, “PLANT TREATMENT COMPOSITION” (Croda International Plc, priority 2019, published 2022).

Assays:
Assay type in all cases: in vivo
Grass weeds = assay: Field trial, glyphosate with Mn formulation, control of grass weeds (Example 2); settings: glyphosate 1 l/ha; V2 soybean growth stage; 7 daa; six locations in Brazil
Procedure: (§1) A study was carried out to evaluate the effect of an Mn formulation on the efficacy of glyphosate, as measured by the control of broadleaf and grass weed species.
(§2) The trial was designed as a randomized complete block with six replications of five treatments (Table 5). The trial was planted at each of six locations in Brazil during the 2015 season. All treatments were applied at the V2 soybean growth stage using backpack sprayers. Soybeans were sown at a rate consistent with locally recommended practices into plots that were approximately 4 m long and 5 m wide.
(§3) Data collected from a 1 m^2 area of each plot included the number of broadleaf and grass weeds, by genus and species, at the V2 soybean growth stage immediately prior to treatment application. The number of dead/damaged and undamaged weeds, by genus and species, was collected from the same 1 m^2 area of each plot 7 daa of a treatment. Treatment 2 (glyphosate alone) was used as the control.

[1] = tested on: individual grass and broadleaf weed species; assay: Field trial, glyphosate with Formulation A, weed control, average over seven weed species (Example 3); settings: Formulation A @ 1 l/ha where applied, average of seven weed species
Procedure: (§4) A study was conducted to evaluate the effect of an Mn formulation on glyphosate efficacy, as measured by the control of individual grass and broadleaf weed species.
(§5) The trial was designed as a randomized complete block with three replications of four treatments (Table 7). The trial was planted at one location in Brazil during March 2016. Weed control was assessed 7, 14, and 28 daa.

weed species [2] = assay: Field trial, glyphosate with K formulation, weed control (Example 5, Study 2); settings: Glyphosate @ 2 l/ha, Formulation @ 5 l/ha where applied
Procedure: (§6) Three studies were conducted to evaluate the effect of a K formulation on glyphosate efficacy, as measured by the control of weed species.
Study 2. The trial was designed as a randomized complete block with two replications of six treatments (Table 13). The trial was planted at one location in Brazil during 2011. Weed control was assessed 14 and 25 daa.

weed species [3] = assay: Field trial, glyphosate with K formulation, weed control (Example 5, Study 1); settings: Glyphosate @ 2 l/ha, no formulation
Procedure: as §6
Study 1. The trial was designed as a randomized complete block with two replications of five treatments (Table 11). The trial was planted at one location in Brazil during 2011. Weed control was assessed 14 and 25 daa.

Brachiaria decumbens [4] = assay: Glyphosate absorption in Brachiaria decumbens with Mn formulations (Example 1, Study 2); settings: glyphosate 3.5 l/ha; Mn formulation at 100 g/ha Mn where applied; four days after application
Procedure: (§7) Studies were conducted to evaluate the effect of an Mn formulation containing manganese on the absorption of glufosinate (Study 1) and glyphosate (Study 2) using Brachiaria decumbens as a model weed species.
Study 2. Seed of Brachiaria decumbens were planted into pots in a greenhouse during January 2015. This experiment was designed as a randomized complete block with six replications. Each plant was sprayed in a spray chamber with one of six treatments (Table 3) 25 days after planting.
The amount of glyphosate on the plant surface (not absorbed) and that penetrated plant tissue (absorbed) was measured four days after application (daa) of a treatment using chromatography and spectrometry.

weed species [5] = assay: Field trial, glyphosate with K formulation, weed control (Example 5, Study 3); settings: Glyphosate @ 2 l/ha, Formulation @ 5 l/ha where applied
Procedure: as §6
Study 3. The trial was designed as a randomized complete block with two replications of six treatments (Table 15). The trial was planted at one location in Brazil during 2011. Weed control was assessed 14 and 25 daa.

Brachiaria plantaginea [6] = assay: Field trial, glyphosate with Formulation A, weed control (Example 3); settings: Formulation A @ 1 l/ha where applied, mean of 7, 14, 28 daa
Procedure: as §4, §5

Brachiaria decumbens [7] = assay: as above; settings: Formulation A @ 1 l/ha where applied, mean of 7, 14, 28 daa
Procedure: as §4, §5

Ipomoea acuminate [8] = assay: as above; settings: Formulation A @ 1 l/ha where applied, mean of 7, 14, 28 daa
Procedure: as §4, §5

Digitaria horizontalis [9] = assay: as above; settings: Formulation A @ 1 l/ha where applied, mean of 7, 14, 28 daa
Procedure: as §4, §5

Cenchrus echinatus [10] = assay: as above; settings: Formulation A @ 1 l/ha where applied, mean of 7, 14, 28 daa
Procedure: as §4, §5

Euphorbia heterophylla = assay: as above; settings: Formulation A @ 1 l/ha where applied, mean of 7, 14, 28 daa
Procedure: as §4, §5

Amaranthus retroflexus = assay: as above; settings: Formulation A @ 1 l/ha where applied, mean of 7, 14, 28 daa
Procedure: as §4, §5

Broadleaf weeds = assay: Field trial, glyphosate with Mn formulation, control of broadleaf weeds (Example 2); settings: glyphosate 1 l/ha; V2 soybean growth stage; 7 daa; six locations in Brazil
Procedure: as §1, §2, §3

Brachiaria plantaginea [11] = assay: Field trial, glufosinate with Formulation A, weed control (Example 4); settings: Formulation A @ 1 l/ha where applied, mean of 7, 14, 28 daa
Procedure: (§8) A study was conducted to evaluate the effect of an Mn formulation on glufosinate efficacy, as measured by the control of individual grass and broadleaf weed species.
(§9) The trial was designed as a randomized complete block with three replications of four treatments (Table 9). The trial was planted at one location in Brazil during March 2016. Weed control was assessed 7, 14, and 28 daa.

Brachiaria decumbens [12] = assay: as above; settings: Formulation A @ 1 l/ha where applied, mean of 7, 14, 28 daa
Procedure: as §8, §9

Ipomoea acuminate [13] = assay: as above; settings: Formulation A @ 1 l/ha where applied, mean of 7, 14, 28 daa
Procedure: as §8, §9

Digitaria horizontalis [14] = assay: as above; settings: Formulation A @ 1 l/ha where applied, mean of 7, 14, 28 daa
Procedure: as §8, §9

Cenchrus echinatus [15] = assay: as above; settings: Formulation A @ 1 l/ha where applied, mean of 7, 14, 28 daa
Procedure: as §8, §9

Brachiaria decumbens [16] = assay: Glufosinate absorption in Brachiaria decumbens with Mn formulations (Example 1, Study 1); settings: glufosinate 2 l/ha; Mn formulation at 100 g/ha Mn where applied; 36 hours after application
Procedure: as §7
Study 1. Seed of Brachiaria decumbens were planted into pots in a greenhouse during January 2015. This experiment was designed as a randomized complete block with six replications. Each plant was sprayed in a spray chamber with one of six treatments (Table 1) 19 days after planting.
The amount of glufosinate on the plant surface (not absorbed) and that penetrated plant tissue (absorbed) was measured 36 hours after application of a treatment using chromatography and spectrometry.

[17] = tested on: individual grass and broadleaf weed species; assay: Field trial, glufosinate with Formulation A, weed control, average over five weed species (Example 4); settings: Formulation A @ 1 l/ha where applied, average of five weed species
Procedure: as §8, §9

## O=C(O)CNCP(=O)(O)O [Glyphosate, glyphosate]
Grass weeds
  Weed control (%) Grass weeds: 97.7%
[1]; Glyphosate @ 1 l/ha
  Weed control (%) Ave: 76.5%
[1]; Glyphosate @ 2 l/ha
  Weed control (%) Ave: 85.5%
Weed species [2]; 14 daa
  Weed control (%) 14 daa: 82.5%
Weed species [2]; 25 daa
  Weed control (%) 25 daa: 96.5%
Weed species [3]; 14 daa
  Weed control (%) 14 daa: 85%
Weed species [3]; 25 daa
  Weed control (%) 25 daa: 96.5%
Brachiaria decumbens [4]
  Glyphosate Absorbed (%): 21.0%
Weed species [5]; 14 daa
  Weed control (%) 14 daa: 85%
Weed species [5]; 25 daa
  Weed control (%) 25 daa: 90%
Brachiaria plantaginea [6]; Glyphosate @ 1 l/ha
  Weed control (%) BRAPL: 91.2%
Brachiaria plantaginea [6]; Glyphosate @ 2 l/ha
  Weed control (%) BRAPL: 95.9%
Brachiaria decumbens [7]; Glyphosate @ 1 l/ha
  Weed control (%) BRADC: 83.0%
Brachiaria decumbens [7]; Glyphosate @ 2 l/ha
  Weed control (%) BRADC: 90.2%
Ipomoea acuminate [8]; Glyphosate @ 1 l/ha
  Weed control (%) IPOA: 34.8%
Ipomoea acuminate [8]; Glyphosate @ 2 l/ha
  Weed control (%) IPOA: 52.6%
Digitaria horizontalis [9]; Glyphosate @ 1 l/ha
  Weed control (%) DIGHO: 96.3%
Digitaria horizontalis [9]; Glyphosate @ 2 l/ha
  Weed control (%) DIGHO: 99.0%
Cenchrus echinatus [10]; Glyphosate @ 1 l/ha
  Weed control (%) CCHEC: 95.0%
Cenchrus echinatus [10]; Glyphosate @ 2 l/ha
  Weed control (%) CCHEC: 98.7%
Euphorbia heterophylla; Glyphosate @ 1 l/ha
  Weed control (%) EPHHL: 65.4%
Euphorbia heterophylla; Glyphosate @ 2 l/ha
  Weed control (%) EPHHL: 77.4%
Amaranthus retroflexus; Glyphosate @ 1 l/ha
  Weed control (%) AMARE: 69.6%
Amaranthus retroflexus; Glyphosate @ 2 l/ha
  Weed control (%) AMARE: 84.7%
Broadleaf weeds
  Weed control (%) Broadleaf weeds: 83.8%

## CP(=O)(O)CCC(N)C(=O)O (centres unmarked) [Glufosinate, glufosinate]
Brachiaria plantaginea [11]; Glufosinate @ 1.5 l/ha
  Weed control (%) BRAPL: 78.6%
Brachiaria plantaginea [11]; Glufosinate @ 2.5 l/ha
  Weed control (%) BRAPL: 88.2%
Brachiaria decumbens [12]; Glufosinate @ 1.5 l/ha
  Weed control (%) BRADC: 89.3%
Brachiaria decumbens [12]; Glufosinate @ 2.5 l/ha
  Weed control (%) BRADC: 91.1%
Ipomoea acuminate [13]; Glufosinate @ 1.5 l/ha
  Weed control (%) IPOAC: 96.7%
Ipomoea acuminate [13]; Glufosinate @ 2.5 l/ha
  Weed control (%) IPOAC: 100.0%
Digitaria horizontalis [14]; Glufosinate @ 1.5 l/ha
  Weed control (%) DIGHO: 67.0%
Digitaria horizontalis [14]; Glufosinate @ 2.5 l/ha
  Weed control (%) DIGHO: 82.9%
Cenchrus echinatus [15]; Glufosinate @ 1.5 l/ha
  Weed control (%) CCHEC: 62.8%
Cenchrus echinatus [15]; Glufosinate @ 2.5 l/ha
  Weed control (%) CCHEC: 78.7%
Brachiaria decumbens [16]
  Glufosinate Absorbed (%): 24.0%
[17]; Glufosinate @ 1.5 l/ha
  Weed control (%) Ave: 78.9%
[17]; Glufosinate @ 2.5 l/ha
  Weed control (%) Ave: 88.2%
